The record followed here is US11578055B2, “Triazacyclododecansulfonamide (“TCD”)-based protein secretion inhibitors” (KEZAR LIFE SCIENCES, priority 2018, dated 2023).

Series [1] is described as follows: In Vitro Microsome Stability Assay (human). It counts as in vitro ADME. Conditions: human, 30 min, NADPH. The method, then: (§1) Potassium phosphate (423 μL of a 0.1 M solution) was added to 8-strip deep well tubes followed by human, mouse, rat, or monkey microsomes (25 μL of a 20 mg/mL solution). The tubes were then placed on ice and the test article (2 μL of a 0.25 mM solution in DMSO) was added. The mixture was preincubated at 37° C. for 3 to 5 minutes (shaking at 150 rpm) then the reaction was initiated by adding 50 μL NADPH. An aliquot of samples (100 μL) were collected at 0 and 30 min and 200 μL of an acetonitrile mixture containing IS (compound 914) was added to quench the reaction. After centrifuging for 10 min at 4000 rpm, a mixed solution of the 20 μL of the supernatant (20 μL) plus 100 μL ACN/H2O (1:1) were injected for LC-MS/MS analysis. Liver microsome stability is assessed by the % remaining of compound at 30 min which is calculated using the following equation: [(AUCanalyteT=30/AUCIS)/(AUCanalyteT=0/AUCIS)]*100
(§2) For chemical structures that include one or more stereoisomers, but are illustrated without indicating stereochemistry, the assay data refers to a mixture of stereoisomers.

Series [2] has as its system multiple myeloma cell line NCl-H929. The series can be described thus: H929 Cell Viability Assay. It counts as cell-based, human. Conditions: Homo sapiens, NCI-H929, 48 h, H929, read-out: 48 hr H929 Viability Celltiter-Glo: Mean EC50. How it is done:
The human multiple myeloma cell line NCl-H929 was cultured in Advanced RPMI 1640 media (Gibco®) supplemented with 6% fetal bovine serum, 2 mM Glutamine, and 1× Penicillin/Streptomycin. On the day of assay, cells were resuspended in RPMI 1640 media supplemented with 10% fetal bovine serum, 2 mM Glutamine, and 1× Penicillin/Streptmycin and plated in 384-well tissue culture plates and treated with compound dilutions in DMSO/media. Plates were incubated at 37° C., 5% CO2 for 48 hours. After 48 hours, Celltiter-Glo® (Promega) was added to each well and luciferase signal was quantified using Tecan Infinite M1000 Pro for cell viability determination.
as §2
A general note: ATP-based viability assays read luminescence as a measure of living cells.

Series [3] is described as follows: In Vitro Microsome Stability Assay (monkey). The conditions noted are these: monkey, 30 min, NADPH. It counts as in vitro ADME. How it is done:
as §1, §2

Series [4] relates to multiple myeloma cell line U266B1. The series can be described thus: U266 Cell Viability Assay. It counts as cell-based, human. Conditions: Homo sapiens, U-266; 48 hr, U266; read-out: 48 hr U266 Viability Celltiter-Glo: Mean EC50. The method, then: The human multiple myeloma cell line U266B1 was cultured in RPMI 1640 media supplemented with 10% fetal bovine serum, 2 mM Glutamine, and 1× Penicillin/Streptomycin. Cells were plated in 384-well tissue culture plates and treated with compound dilutions in DMSO/media. Plates were incubated at 37° C., 5% CO2 for 48 hours. After 48 hours, Celltiter-Glo® (Promega) was added to each well and luciferase signal was quantified using Tecan Infinite M1000 Pro for cell viability determination.
For chemical structures that include one or more stereoisomers, but are illustrated without indicating stereochemistry, the assay data refers to a mixture of stereoisomers

Series [5] relates to PD1 signal sequence plus 10 amino acids fused to Gaussia Luciferase (PD1-ss+10aa/Gaussia Luciferase). The series can be described thus: Dox Induced PD1-ss-Gluc Assay. It counts as cell-based. The conditions noted are these: 24 hr, 293FRT/TO; read-out: 24 hr Dox Inducible PD1ssGluc 293FRT/TO: Mean IC50.
Excerpt: FIp-In 293 T-REx™ cells were transfected with pcDNA™5/FRT/TO plasmid inserted with cDNA encoding Gaussia Luciferase fused to the 3′ end of cDNA encoding PD1 signal sequence plus 10 amino acids (N-[…]-C) (SEQ ID NO: 1). Transfected cells were selected for resistance to the selectable markers Hygromycin and Blasticidin to create a stable cell line that contained the PD1-ss+10aa/Gaussia Luciferase cDNA insert whose expression was regulated under the T-REx™ system. The day before assay, cells were trypsinized and plated in 384-well tissue culture plates. The next day, compound dilutions in DMSO/media containing doxycycline were added to the wells and incubated at 37° C., 5% CO2.
as §2

Series [6] relates to full length TNFα (amino acids 1-233) fused to Gaussia Luciferase. Put plainly: Dox Induced TNFα-FL-Gluc Assay. It counts as cell-based. Conditions: 24 hr, 293FRT/TO; read-out: 24 hr Dox Inducible TNFaFLGluc 293FRT/TO: Mean IC50.
Excerpt: FIp-In 293 T-REx™ cells were transfected with pcDNA™5/FRT/TO plasmid inserted with cDNA encoding Gaussia Luciferase fused to the 3′ end of cDNA encoding full length TNFα (amino acids 1-233). Transfected cells were selected for resistance to the selectable markers Hygromycin and Blasticidin to create a stable cell line that contained the TNFα-FL/Gaussia Luciferase cDNA insert whose expression was regulated under the T-REx™ system. The day before assay, cells were trypsinized and plated in 384-well tissue culture plates. The next day, compound dilutions in DMSO/media containing doxycycline were added to the wells and incubated at 37° C., 5% CO2.
as §2

A short description of series [7]: In Vitro Microsome Stability Assay (rat). It counts as in vitro ADME. The conditions noted are these: rat, 30 min, NADPH. The method, then:
as §1, §2

A short description of series [8]: In Vitro Microsome Stability Assay (mouse). It counts as in vitro ADME. The conditions noted are these: mouse, 30 min, NADPH. The method, then: as §1, §2

pEC50, pIC50: −log10 of the molar value. Where a name gives a salt, the structure may show the parent alone. Some results are limits rather than exact numbers.

What is called pEC50 is −log10 of the EC50, conventionally taken in molar units. With `C=C1CN(S(=O)(=O)c2ccc(N(C)C)cc2)CCCN(CC2CCCCC2)CCCN(S(=O)(=O)N(C)C)C1` [A16, 9-(cyclohexylmethyl)-5-[4-(dimethylamino)benzenesulfonyl]-N,N-dimethyl-3-methylidene-1,5,9-triazacyclododecane-1-sulfonamide], the “Liver Microsome Stability-% Left after 30 min w/ NADPH (%) Human” value (“Liver Microsome Stability-% Left … (%) Human” below) in series [1] is recorded as 0.11%. The pEC50 in series [2] was 5.30; in series [4], less than 4.60. The “Liver Microsome Stability-% Left after 30 min w/ NADPH (%) Monkey” value (from here on “Liver Microsome Stability-% Left … (%) Monkey”) in series [3] turned out to be 41.1%. The values for the pIC50 in series [5] and in series [6] were 6.97 and 5.20, respectively. Besides, the “Liver Microsome Stability-% Left after 30 min w/ NADPH (%) Rat” value (“Liver Microsome Stability-% Left … (%) Rat” below) in series [7] came to 2.62%. Also, the “Liver Microsome Stability-% Left after 30 min w/ NADPH (%) Mouse” value (“Liver Microsome Stability-% Left … (%) Mouse” below) in series [8] came out at 2.09%.

Turning to `CN(C)c1ccc(S(=O)(=O)N2CCCN(CC3CCCCC3)CCCN(S(=O)(=O)N3CCCCC3)CC3(COC3)C2)cc1` [A17, 4-{[10-(cyclohexylmethyl)-14-(piperidine-1-sulfonyl)-2-oxa-6,10,14-triazaspiro[3.11]pentadecan-6-yl]sulfonyl}-N,N-dimethylaniline], in series [1], the “Liver Microsome Stability-% Left … (%) Human” value came out at 0.49%. Also, the pEC50 in series [2] and in series [4] was less than 4.60 in each case. Also, the “Liver Microsome Stability-% Left … (%) Monkey” value in series [3] was 0.36%. Also, the pIC50 in series [5] was 6.03; in series [6] it was less than 4.60. Moreover, in series [7], the “Liver Microsome Stability-% Left … (%) Rat” value is 1.06%. Besides, the “Liver Microsome Stability-% Left … (%) Mouse” value in series [8] was determined as 0.41%.

For `O=S(=O)(N1CCCCC1)N1CCCN(Cc2ccccc2)CCCN(S(=O)(=O)N2CCCCC2)CC2(CC2)C1` [A18, 9-benzyl-5,13-bis(piperidin-1-ylsulfonyl)-5,9,13-triazaspiro[2.11]tetradecane hydrochloride], the “Liver Microsome Stability-% Left … (%) Human” value in series [1] stood at 0.04%. Also, the figures for the pEC50 in series [2] and in series [4] were less than 4.60 and 4.81, respectively. For the same compound, the “Liver Microsome Stability-% Left … (%) Monkey” value in series [3] is 0.05%. The pIC50 in series [5] and in series [6] was less than 4.60 throughout. In addition, the “Liver Microsome Stability-% Left … (%) Rat” value in series [7] is listed as 0.11%. The “Liver Microsome Stability-% Left … (%) Mouse” value in series [8] is listed as 0.05%.

Consider `CN(C)c1ccc(S(=O)(=O)N2CCCN(CC3CCCCC3)CCCN(S(=O)(=O)N3CCCCC3)CC3(CC3)C2)cc1` [A19, 4-((9-(cyclohexylmethyl)-13-(piperidin-1-ylsulfonyl)-5,9,13-triazaspiro[2.11]tetradecan-5-yl)sulfonyl)-N,N-dimethylaniline hydrochloride], for which, in series [1], the “Liver Microsome Stability-% Left … (%) Human” value is on record as 0.05%. Also, the pEC50 in series [2] is less than 4.60; in series [4], 4.66. For the same compound, the “Liver Microsome Stability-% Left … (%) Monkey” value in series [3] turned out to be 0.08%. The pIC50 in series [5] is 6.49; in series [6], less than 4.60. The “Liver Microsome Stability-% Left … (%) Rat” value in series [7] is reported as 0.1%. For the same compound, the “Liver Microsome Stability-% Left … (%) Mouse” value in series [8] was 0.24%.

On to `CC1CCCCN1S(=O)(=O)N1CCCN(CC2CCCCC2)CCCN(S(=O)(=O)c2ccc(N(C)C)cc2)CC2(CC2)C1` (stereo not drawn) [A20, 4-{[9-(cyclohexylmethyl)-13-[(2-methylpiperidin-1-yl)sulfonyl]-5,9,13-triazaspiro[2.11]tetradecan-5-yl]sulfonyl}-N,N-dimethylaniline], for which the “Liver Microsome Stability-% Left … (%) Human” value in series [1] was found to be 0.05%. For the same compound, the values for the pEC50 in series [2] and in series [4] were 4.89 and less than 4.60, respectively. In addition, the “Liver Microsome Stability-% Left … (%) Monkey” value in series [3] is on record as 0.06%. The pIC50 in series [5] is 6.68; in series [6], less than 4.60. In series [7], the “Liver Microsome Stability-% Left … (%) Rat” value amounted to 0.19%. The “Liver Microsome Stability-% Left … (%) Mouse” value in series [8] was determined as 0.07%.

As to `CC1CCCN(S(=O)(=O)N2CCCN(CC3CCCCC3)CCCN(S(=O)(=O)c3ccc(N(C)C)cc3)CC3(CC3)C2)C1` (stereo not drawn) [A21, 4-{[9-(cyclohexylmethyl)-13-[(3-methylpiperidin-1-yl)sulfonyl]-5,9,13-triazaspiro[2.11]tetradecan-5-yl]sulfonyl}-N,N-dimethylaniline], in series [1], the “Liver Microsome Stability-% Left … (%) Human” value was determined as 0.14%. In addition, the pEC50 in series [2] was 5.08; in series [4], less than 4.60. Also, the “Liver Microsome Stability-% Left … (%) Monkey” value in series [3] is recorded as 0.11%. Besides, the pIC50 in series [5] was 6.74; in series [6], 5.00. Moreover, the “Liver Microsome Stability-% Left … (%) Rat” value in series [7] is given as 0.62%. In addition, the “Liver Microsome Stability-% Left … (%) Mouse” value in series [8] is on record as 1.77%.

For the compound `CN(C)c1ccc(S(=O)(=O)N2CCCN(CC3CCCCC3)CCCN(S(=O)(=O)N3CCCC3)CC3(CC3)C2)cc1` [A23, 4-{[9-(cyclohexylmethyl)-13-(pyrrolidine-1-sulfonyl)-5,9,13-triazaspiro[2.11]tetradecan-5-yl]sulfonyl}-N,N-dimethylaniline], the “Liver Microsome Stability-% Left … (%) Human” value in series [1] is 0.04%. Moreover, the pEC50 in series [2] and in series [4] was less than 4.60 throughout. Also, the “Liver Microsome Stability-% Left … (%) Monkey” value in series [3] amounted to 0.03%. The pIC50 in series [5] is 6.12; in series [6] it was less than 4.60. Further, the “Liver Microsome Stability-% Left … (%) Rat” value in series [7] was 0.13%. The “Liver Microsome Stability-% Left … (%) Mouse” value in series [8] is on record as 0.17%.

On to `O=C(c1ccc(Cl)cc1)N1CCCN(S(=O)(=O)N2CCCCC2)CC2(CC2)CN(S(=O)(=O)N2CCCCC2)CCC1` [A24, (5,13-bis(piperidin-1-ylsulfonyl)-5,9,13-triazaspiro[2.11]tetradecan-9-yl)(4-chlorophenyl)methanone], for which the “Liver Microsome Stability-% Left … (%) Human” value in series [1] is 0.03%. Further, the negative-log EC50 (pEC50) in series [2] and in series [4] was less than 4.60 in each case. The “Liver Microsome Stability-% Left … (%) Monkey” value in series [3] is 0.03%. Moreover, the pIC50 in series [5] and in series [6] was less than 4.60 each time. Further, the “Liver Microsome Stability-% Left … (%) Rat” value in series [7] came out at 0.04%. For the same compound, the “Liver Microsome Stability-% Left … (%) Mouse” value in series [8] turned out to be 0.13%.

Take `CN(C)c1ccc(S(=O)(=O)N2CCCN(CC3CCCCC3)CCCN(S(=O)(=O)N3CCCCCC3)CC3(CC3)C2)cc1` [A25, 4-{[13-(azepane-1-sulfonyl)-9-(cyclohexylmethyl)-5,9,13-triazaspiro[2.11]tetradecan-5-yl]sulfonyl}-N,N-dimethylaniline]: in series [1], the “Liver Microsome Stability-% Left … (%) Human” value is listed as 0.12%. In addition, the pEC50 in series [2] and in series [4] was less than 4.60 each time. The “Liver Microsome Stability-% Left … (%) Monkey” value in series [3] amounted to 0.2%. Moreover, the figures for the pIC50 in series [5] and in series [6] were 6.36 and less than 4.60, respectively. Also, the “Liver Microsome Stability-% Left … (%) Rat” value in series [7] stood at 4.16%. Moreover, the “Liver Microsome Stability-% Left … (%) Mouse” value in series [8] was 0.32%.
